Six molecules from ChEMBL document CHEMBL5465560, “Selectivity Literature for EUbOPEN Chemogenomic Library” (2024) can be followed below.

SMILES strings stand for the structures.

For test [1], the target named is T1, Dual specificity mitogen-activated protein kinase kinase 7 (Homo sapiens) (UniProt O14733).
T1 sequence (whole entry): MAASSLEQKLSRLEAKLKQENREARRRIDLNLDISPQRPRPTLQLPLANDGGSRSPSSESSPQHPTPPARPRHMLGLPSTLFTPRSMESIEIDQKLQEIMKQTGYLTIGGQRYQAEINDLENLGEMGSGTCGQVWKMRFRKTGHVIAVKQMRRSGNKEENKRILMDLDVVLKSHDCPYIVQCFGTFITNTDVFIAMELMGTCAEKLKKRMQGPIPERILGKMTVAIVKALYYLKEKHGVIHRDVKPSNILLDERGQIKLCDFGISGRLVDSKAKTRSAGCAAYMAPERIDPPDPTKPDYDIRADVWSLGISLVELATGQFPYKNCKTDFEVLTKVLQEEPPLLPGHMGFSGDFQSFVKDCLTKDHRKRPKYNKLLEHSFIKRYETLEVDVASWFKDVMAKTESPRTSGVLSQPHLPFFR
Briefly: Selectivity interaction (Kinase panel (KiNativ target engagement assay in Jurkat cells)) EUB0001635a MAP2K7. The following applies: Selectivity number of off-targets 0.0, Selectivity number of targets 233.0, Source Knowledge https://www.sciencedirect.com/science/article/pii/S2451945619300674?via%3Dihub, at 1 µM. Format: cell-based.

The target in test [2] is T2, Mitogen-activated protein kinase kinase kinase 15 (Homo sapiens) (UniProt Q6ZN16).
T2 sequence (whole entry): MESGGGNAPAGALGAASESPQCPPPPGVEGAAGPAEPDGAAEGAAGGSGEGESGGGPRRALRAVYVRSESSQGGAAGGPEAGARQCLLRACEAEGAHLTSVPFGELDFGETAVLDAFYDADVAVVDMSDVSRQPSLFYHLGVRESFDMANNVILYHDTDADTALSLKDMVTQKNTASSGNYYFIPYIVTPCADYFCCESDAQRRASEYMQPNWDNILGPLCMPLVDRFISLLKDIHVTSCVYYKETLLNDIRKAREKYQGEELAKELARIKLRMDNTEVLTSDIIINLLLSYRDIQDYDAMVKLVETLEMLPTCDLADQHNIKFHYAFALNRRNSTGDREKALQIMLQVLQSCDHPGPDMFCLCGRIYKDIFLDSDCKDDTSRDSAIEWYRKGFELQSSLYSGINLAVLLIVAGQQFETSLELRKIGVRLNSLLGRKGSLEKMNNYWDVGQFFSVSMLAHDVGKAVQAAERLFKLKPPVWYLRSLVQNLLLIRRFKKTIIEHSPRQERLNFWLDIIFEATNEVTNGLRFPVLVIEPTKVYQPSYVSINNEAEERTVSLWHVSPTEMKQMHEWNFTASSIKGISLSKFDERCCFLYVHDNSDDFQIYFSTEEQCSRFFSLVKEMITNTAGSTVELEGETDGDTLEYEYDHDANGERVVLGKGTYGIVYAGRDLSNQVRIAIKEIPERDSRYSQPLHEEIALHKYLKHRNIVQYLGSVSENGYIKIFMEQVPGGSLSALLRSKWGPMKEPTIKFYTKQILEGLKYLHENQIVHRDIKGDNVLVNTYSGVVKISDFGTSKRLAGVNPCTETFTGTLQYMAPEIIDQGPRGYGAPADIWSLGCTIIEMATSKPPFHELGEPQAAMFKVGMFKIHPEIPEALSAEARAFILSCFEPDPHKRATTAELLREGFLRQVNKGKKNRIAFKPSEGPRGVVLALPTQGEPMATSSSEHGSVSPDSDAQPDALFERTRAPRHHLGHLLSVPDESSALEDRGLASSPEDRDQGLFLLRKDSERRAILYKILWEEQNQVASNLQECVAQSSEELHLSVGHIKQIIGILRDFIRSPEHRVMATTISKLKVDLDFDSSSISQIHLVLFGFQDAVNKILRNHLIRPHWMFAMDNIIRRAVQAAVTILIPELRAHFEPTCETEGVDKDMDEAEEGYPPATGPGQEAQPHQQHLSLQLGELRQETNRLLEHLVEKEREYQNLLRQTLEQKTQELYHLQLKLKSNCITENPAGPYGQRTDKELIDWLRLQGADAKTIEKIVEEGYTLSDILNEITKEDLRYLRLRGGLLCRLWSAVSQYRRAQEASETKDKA
In words: Selectivity interaction (Ambit KINOMEscan and KiNATiv profiling in Jurkat cells) EUB0000090b MAP3K15. As to conditions: at 1 µM. Format: cell-based.

The target in test [3] is Ribosomal protein S6 kinase alpha-1 (Homo sapiens, UniProt Q15418). Briefly: Selectivity interaction (KinomeScan (DiscoverX)) EUB0001079a RPS6KA1. The following applies: at 1 µM.
Chain of Ribosomal protein S6 kinase alpha-1 (Q15418 whole entry): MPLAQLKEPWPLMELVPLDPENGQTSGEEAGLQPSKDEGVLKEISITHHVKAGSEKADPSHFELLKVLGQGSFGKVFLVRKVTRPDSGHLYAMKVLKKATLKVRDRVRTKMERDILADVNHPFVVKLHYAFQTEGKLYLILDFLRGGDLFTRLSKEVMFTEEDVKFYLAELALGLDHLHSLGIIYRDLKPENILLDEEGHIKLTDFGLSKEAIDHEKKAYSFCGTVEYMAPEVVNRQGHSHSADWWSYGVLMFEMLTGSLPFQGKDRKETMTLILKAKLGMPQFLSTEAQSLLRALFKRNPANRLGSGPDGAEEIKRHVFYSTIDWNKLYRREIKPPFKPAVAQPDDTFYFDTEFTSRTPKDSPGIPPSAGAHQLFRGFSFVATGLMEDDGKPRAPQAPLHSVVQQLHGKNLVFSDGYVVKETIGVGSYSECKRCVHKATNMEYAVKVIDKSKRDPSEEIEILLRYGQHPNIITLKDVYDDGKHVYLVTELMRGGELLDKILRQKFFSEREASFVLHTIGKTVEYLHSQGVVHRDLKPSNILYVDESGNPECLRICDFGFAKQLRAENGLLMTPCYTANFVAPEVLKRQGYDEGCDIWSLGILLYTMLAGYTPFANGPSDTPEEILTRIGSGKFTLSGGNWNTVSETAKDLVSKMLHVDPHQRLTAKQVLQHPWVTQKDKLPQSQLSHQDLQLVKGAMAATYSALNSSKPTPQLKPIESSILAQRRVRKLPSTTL
Test [4] addresses Tyrosine-protein kinase Fes/Fps (Homo sapiens) (UniProt P07332). In words: Selectivity interaction (KinaseProfiler screening (Millipore)) EUB0000601a FES. As to conditions: at 3 µM.
In test [5] the target is Calcium/calmodulin-dependent protein kinase type II subunit gamma (Homo sapiens) (UniProt Q13555). In words: Selectivity interaction (ActivX KiNativ screen (ex vivo kinase selectivity in human PBMCs)) EUB0001619a CAMK2G. The following applies: PBMC, at 1 µM. Format: cell-based.
Chain of Calcium/calmodulin-dependent protein kinase type II subunit gamma (Homo sapiens) (Q13555 whole entry): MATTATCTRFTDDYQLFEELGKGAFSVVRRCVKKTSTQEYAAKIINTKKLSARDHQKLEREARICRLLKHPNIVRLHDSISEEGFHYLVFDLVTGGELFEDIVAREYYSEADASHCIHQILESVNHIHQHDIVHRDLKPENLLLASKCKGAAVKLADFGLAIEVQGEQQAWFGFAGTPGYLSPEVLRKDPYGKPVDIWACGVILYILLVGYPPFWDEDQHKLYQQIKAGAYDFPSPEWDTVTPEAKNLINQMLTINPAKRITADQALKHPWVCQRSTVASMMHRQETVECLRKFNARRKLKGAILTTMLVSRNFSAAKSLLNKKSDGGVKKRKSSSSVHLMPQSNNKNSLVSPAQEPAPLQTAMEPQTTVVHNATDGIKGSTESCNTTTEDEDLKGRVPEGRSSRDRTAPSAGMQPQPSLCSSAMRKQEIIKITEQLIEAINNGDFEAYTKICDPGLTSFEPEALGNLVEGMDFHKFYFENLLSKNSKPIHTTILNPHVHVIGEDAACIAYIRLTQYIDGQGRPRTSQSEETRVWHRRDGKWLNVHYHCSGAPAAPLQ
For test [6], the target named is T3, cGMP-dependent protein kinase 2 (Homo sapiens) (UniProt Q13237).
T3 sequence (whole entry): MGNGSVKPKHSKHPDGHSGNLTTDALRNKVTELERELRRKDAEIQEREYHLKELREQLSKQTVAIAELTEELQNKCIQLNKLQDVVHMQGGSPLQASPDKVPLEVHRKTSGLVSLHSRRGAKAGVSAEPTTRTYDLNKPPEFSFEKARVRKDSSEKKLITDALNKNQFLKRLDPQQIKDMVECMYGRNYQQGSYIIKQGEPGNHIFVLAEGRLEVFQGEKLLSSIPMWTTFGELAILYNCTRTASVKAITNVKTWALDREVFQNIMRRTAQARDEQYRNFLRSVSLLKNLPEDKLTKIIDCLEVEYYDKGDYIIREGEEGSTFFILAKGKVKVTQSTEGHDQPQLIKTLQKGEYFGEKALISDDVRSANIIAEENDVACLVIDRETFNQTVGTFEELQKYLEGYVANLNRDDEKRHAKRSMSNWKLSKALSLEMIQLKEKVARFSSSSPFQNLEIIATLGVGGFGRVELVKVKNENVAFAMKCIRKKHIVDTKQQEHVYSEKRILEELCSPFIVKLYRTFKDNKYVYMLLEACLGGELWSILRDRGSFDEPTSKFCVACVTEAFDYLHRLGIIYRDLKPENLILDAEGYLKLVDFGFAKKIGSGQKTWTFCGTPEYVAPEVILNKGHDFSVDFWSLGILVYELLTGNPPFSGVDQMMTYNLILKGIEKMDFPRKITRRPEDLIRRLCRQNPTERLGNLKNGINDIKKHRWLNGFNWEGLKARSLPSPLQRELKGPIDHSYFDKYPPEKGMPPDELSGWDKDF
Briefly: Selectivity interaction (KinomeScan (DiscoverX)) EUB0001619a PRKG2. As to conditions: at 1 µM.

Test [7] addresses Dual specificity protein kinase CLK4 (Homo sapiens, UniProt Q9HAZ1). Briefly: Selectivity interaction (KinomeScan (DiscoverX)) EUB0000092b CLK4. The following applies: at 10 µM.

Chain of Dual specificity protein kinase CLK4 (Q9HAZ1 whole entry, looked up): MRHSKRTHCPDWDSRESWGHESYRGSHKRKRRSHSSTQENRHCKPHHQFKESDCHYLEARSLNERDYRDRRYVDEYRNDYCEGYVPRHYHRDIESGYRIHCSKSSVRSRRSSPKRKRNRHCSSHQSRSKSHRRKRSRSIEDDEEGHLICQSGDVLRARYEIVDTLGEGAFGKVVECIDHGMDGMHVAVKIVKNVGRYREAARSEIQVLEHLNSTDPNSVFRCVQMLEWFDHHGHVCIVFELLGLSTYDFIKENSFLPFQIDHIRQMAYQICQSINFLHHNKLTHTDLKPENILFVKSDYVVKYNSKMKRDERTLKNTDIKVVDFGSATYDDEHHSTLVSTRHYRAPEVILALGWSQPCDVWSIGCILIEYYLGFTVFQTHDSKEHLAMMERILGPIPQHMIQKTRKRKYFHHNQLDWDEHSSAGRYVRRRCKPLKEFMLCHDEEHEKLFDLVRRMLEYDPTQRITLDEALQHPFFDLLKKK
Chain of Tyrosine-protein kinase Fes/Fps (Homo sapiens) (P07332 whole entry): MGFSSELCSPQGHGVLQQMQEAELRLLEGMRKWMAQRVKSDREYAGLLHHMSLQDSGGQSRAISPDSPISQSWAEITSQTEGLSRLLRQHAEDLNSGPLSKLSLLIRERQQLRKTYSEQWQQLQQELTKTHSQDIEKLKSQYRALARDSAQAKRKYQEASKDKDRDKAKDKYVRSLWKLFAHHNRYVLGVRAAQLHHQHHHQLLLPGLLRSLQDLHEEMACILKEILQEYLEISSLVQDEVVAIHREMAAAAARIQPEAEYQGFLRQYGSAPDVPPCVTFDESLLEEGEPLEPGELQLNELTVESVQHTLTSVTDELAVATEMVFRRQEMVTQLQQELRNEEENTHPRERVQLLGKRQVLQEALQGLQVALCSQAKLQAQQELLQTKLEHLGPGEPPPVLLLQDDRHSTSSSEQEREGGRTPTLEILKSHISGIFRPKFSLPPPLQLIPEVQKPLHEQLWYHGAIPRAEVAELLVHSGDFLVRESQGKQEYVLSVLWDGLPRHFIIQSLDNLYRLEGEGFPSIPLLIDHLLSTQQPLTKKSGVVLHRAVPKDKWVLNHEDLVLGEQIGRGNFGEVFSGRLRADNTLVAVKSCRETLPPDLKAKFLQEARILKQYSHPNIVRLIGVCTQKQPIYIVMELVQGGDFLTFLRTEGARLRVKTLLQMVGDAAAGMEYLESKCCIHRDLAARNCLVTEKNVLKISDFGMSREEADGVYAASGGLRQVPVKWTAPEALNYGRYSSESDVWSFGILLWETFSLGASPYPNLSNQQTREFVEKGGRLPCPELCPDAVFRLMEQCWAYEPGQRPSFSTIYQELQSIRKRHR

`C=CC(=O)Nc1ccc(C(=O)Nc2[nH]nc3c2CN(C(=O)N[C@H](CN(C)C)c2ccccc2)C3(C)C)cc1` gave a % of engagement in test [1] of 22.4%.
In test [2], `CN(C)C/C=C/C(=O)Nc1ccc(C(=O)N2CCCC(Nc3ncc(Cl)c(-c4c[nH]c5ccccc45)n3)C2)cc1` (configuration not stated) displayed a % of control of 73%.
`Nc1cnc(N2CCc3cc(S(=O)(=O)Nc4c(F)cc(Cl)cc4F)cc(N4CCCC4=O)c32)nc1` [TP-020n] displayed a % of control in test [3] of 100%.
In test [4], `CCc1cc(Nc2nccc(-c3c(-c4ccc(OC)c(C(=O)Nc5c(F)cccc5F)c4)nc4ccccn34)n2)c(OC)cc1N1CCC(N2CCN(S(C)(=O)=O)CC2)CC1` returned a % of inhibition of 82%.
Consider `N#Cc1cccc(-c2c[nH]c3ncnc(N4CCOCC4)c23)c1`, for which the % of inhibition in test [5] stood at 3%. The same molecule showed a % of control in test [6] of 100%.
In turn, `CCC(=O)N1CCN(c2ccc(-n3c(=O)ccc4cnc5ccc(-c6cnc7ccccc7c6)cc5c43)cc2C(F)(F)F)CC1` yielded a % of control in test [7] of 49%.
